# Assay results: paper PMC4805251, “Novel Antimicrobial Peptides EeCentrocins 1, 2 and EeStrongylocin 2 from the Edible Sea Urchin Echinus esculentus Have 6-Br-Trp Post-Translational Modifications” (PLoS ONE, 2016)
# Like-named read-outs stand apart in the source and are kept apart here. Bridge positions count the residues as written; N and C are the ends. Square brackets hold non-standard residues; d marks the D form. Ends that are not written are not given here. I, II: the chains in the order shown. Trp(6-Br) = N[C@@H](Cc1c[nH]c2cc(Br)ccc12)C(=O)O
# Experiments:
# Type in all cases: cell-based
# [1] = system: Corynebacterium glutamicum (ATCC 13032)
# Source text: (§1) Organic phase extract, SPE eluates and HPLC-fractions were screened for antibacterial activity against two strains of Gram-positive and two strains of Gram-negative bacteria; Corynebacterium glutamicum (ATCC 13032), Staphylococcus aureus (ATCC 9144), Pseudomonas aeruginosa #1 (ATCC 27853) and Escherichia coli #1 (ATCC 25922). For extended antimicrobial bioactivity screening, the following bacterial strains were used, three strains of Gram-positive bacteria; S. epidermidis #1 (5179-R1) kindly provided by Holger Rohde, S. epidermidis #2, RP62A (ATCC 35984) and Bacillus subtilis (ATCC 23857) in addition to the Gram-negative P. aeruginosa #2, PA 01 (ATCC 15692, DSM 19880) and E. coli #2, NR 698 (MC4100/ptD4213).
# (§2) Cultures stored at -80°C were smeared onto agar plates and cultured for 24 h at 35°C. One colony of each bacterial strain was transferred to 5 ml liquid Müller-Hinton (MH, Difco, Lawrence, KS, USA) medium in a glass tube and left shaking at room temperature overnight at 600 rpm. The cultures of actively growing bacteria (20 μl) were further inoculated in 5 ml MH medium and left shaking for 2 h at room temperature. The antibacterial assays were performed as previously described by. Briefly, the bacterial cultures were diluted with medium to 1.3–1.5 × 10^4 bacteria/ml final concentrations and an aliquot of 50 μl was added to each well in 96-well Nunclon^TM microtiter plates (Nagle Nunc Int., Denmark) preloaded with 50 μl test sample solutions, i.e. extracts, eluates or peptides.
# (§3) The test plates were incubated for 24 h at 35°C with optical density (OD595) recorded every hour using an Envision 2103 multilabel reader, controlled by the Wallac Envision manager (PerkinElmer, CT, USA). Antibacterial activity was defined as a sample showing >90% inhibition (as measured by optical density) compared to the negative (growth) controls, consisting of bacteria and water. Oxytetracycline (20 μM) served as a positive (inhibition) control. The minimum inhibitory concentration (MIC) was defined as the lowest concentration of a sample displaying >90% inhibition.
# (§4) ACN-phases and SPE eluates were tested with two-fold serial dilutions ranging from 5.0 to 0.005 mg/ml (5.0, 2.5, 1.25, 0.63, 0.31, 0.16, 0.08, 0.04, 0.02, 0.01, 0.005 mg/ml) whereas HPLC-fractions were tested undiluted for antibacterial activity. Pure, native peptides and synthetic peptides (described in section 2.11) were tested for antimicrobial activity in concentrations ranging from 100 to 0.1 μM in two-fold serial dilutions (100, 50, 25, 12.5, 6.25, 3.13, 1.56, 0.78, 0.39, 0.20, 0.10 μM). Antimicrobial assays involving natural peptides (i.e. fractionated natural material) were run only once due to limited quantities, whereas all other assays were run in triplicates.
# [2] = system: Escherichia coli #1 (ATCC 25922)
# Source text: as §1, §2, §3, §4
# [3] = system: Pseudomonas aeruginosa #1 (ATCC 27853)
# Source text: as §1, §2, §3, §4
# [4] = system: Staphylococcus aureus (ATCC 9144)
# Source text: as §1, §2, §3, §4
# human red blood cells = assay: Haemolytic activity assay
# Description: Synthesised peptide analogues of EeCentrocin 1 and 2 were screened for eukaryotic cell-toxicity with a haemolytic activity assay using human red blood cells as described previously. The assay was performed on 96-well U-shaped microtiter plates (Nagle Nunc) with 50 μl peptide sample, 40 μl phosphate-buffered saline (PBS) and 10 μl red blood cells. The final peptide concentrations ranged from 100 to 0.1 μM in two-fold serial dilutions. After one hour of incubation at 37°C in a shaker, the plate was centrifuged at 200 g for 5 min and the supernatants (60 μl) were carefully transferred to a new flat-bottomed polycarbonate microtiter plate (Nagle Nunc) and absorbance at 550 nm was measured on a Synergy H1 multimode reader (BioTek, VT, USA). Cell suspension added 0.05% Triton X-100 (Sigma-Aldrich, MO, USA) in PBS served as positive (100% haemolysis) control and cell suspension added PBS served as negative (0% haemolysis) control. The percent haemolysis was calculated using the formula [(Asample-Abaseline)/(Atriton-Abaseline)]×100. The experiment was performed in duplicates.
# [5] = MH medium, 24 h at 35°C, OD595, lowest concentration with >90% inhibition, value of Table 2, native peptides run once, synthetic in triplicates
# [6] = MH medium, 24 h at 35°C, OD595, >90% inhibition, value of Table 2, native peptides run once, synthetic in triplicates
substance,measurement,setting,value
I: G[Trp(6-Br)][Trp(6-Br)]RRTVDKVRNAGRKVAGFASKACGALGH-OH / II: DIGKYCGYAHALN-NH2 (disulfide I:25-II:6) [EeCentrocin 1],MIC C. glutamicum,"[1]; ATCC 13032, 24 h",0.78 µM
same,MIC E. coli #1,"[2]; ATCC 25922, 24 h",0.1 µM
same,MIC P. aeruginosa #1,"[3]; ATCC 27853, 24 h",0.78 µM
same,MIC S. aureus,"[4]; ATCC 9144, 24 h",0.78 µM
"Triton X-100 [Lysis (0.05% Triton X-100), reference compound]","Absorbance at 550nm, lysis control",human red blood cells,0.24
"XNPFKKIAHRXCYPKNE (bicyclic or more) [EeStrongylocin 2, cysteine-rich antimicrobial peptide from E. esculentus with 3 disulphide bonds and a 6-Br-Trp]",MIC C. glutamicum,[1]; [5],1.56 µM
same,MIC E. coli #1,[2]; [6],0.78 µM
same,MIC P. aeruginosa #1,[3]; [6],1.56 µM
same,MIC S. aureus,[4]; [5],3.13 µM
